For 20 molecules, EC30 results are on record in patent US10758534B2 (Vertex Pharmaceuticals Incorporated, priority 2014, dated 2020).

This experiment concerns the target T1, F508del (Homo sapiens, UniProt P13569, DEL508-508).
T1 construct: expressed in transfected cells
The experiment can be described thus: Protocol 1: membrane potential optical assay (FLIPR III, voltage sensing dye), identification of potentiator compounds. It counts as cell-based. As to conditions: Table 3, compounds of Table 1. The text has this:
Membrane Potential Optical Methods for Assaying F508del Modulation Properties of Compounds
The assay utilizes fluorescent voltage sensing dyes to measure changes in membrane potential using a fluorescent plate reader (e.g., FLIPR III, Molecular Devices, Inc.) as a readout for increase in functional F508del in NIH 3T3 cells. The driving force for the response is the creation of a chloride ion gradient in conjunction with channel activation by a single liquid addition step after the cells have previously been treated with compounds and subsequently loaded with a voltage sensing dye.
Identification of Potentiator Compounds
To identify potentiators of F508del, a double-addition HTS assay format was developed. This HTS assay utilizes fluorescent voltage sensing dyes to measure changes in membrane potential on the FLIPR III as a measurement for increase in gating (conductance) of F508del in temperature-corrected F508del NIH 3T3 cells. The driving force for the response is a Cl^− ion gradient in conjunction with channel activation with forskolin in a single liquid addition step using a fluorescent plate reader such as FLIPR III after the cells have previously been treated with potentiator compounds (or DMSO vehicle control) and subsequently loaded with a redistribution dye.
Bath Solution #1: (in mM) NaCl 160, KCl 4.5, CaCl2 2, MgCl2 1, HEPES 10, pH 7.4 with NaOH.
Chloride-free bath solution: Chloride salts in Bath Solution #1 (above) are substituted with gluconate salts.
NIH3T3 mouse fibroblasts stably expressing F508del are used for optical measurements of membrane potential. The cells are maintained at 37° C. in 5% CO2 and 90% humidity in Dulbecco's modified Eagle's medium supplemented with 2 mM glutamine, 10% fetal bovine serum, 1×NEAA, β-ME, 1× pen/strep, and 25 mM HEPES in 175 cm^2 culture flasks. For all optical assays, the cells were seeded at ˜20,000/well in 384-well matrigel-coated plates and cultured for 2 hrs at 37° C. before culturing at 27° C. for 24 hrs. for the potentiator assay. For the correction assays, the cells are cultured at 27° C. or 37° C. with and without compounds for 16-24 hours.

Each structure is given as a SMILES string.

T1 sequence (P13569 with tags, fused parts or gaps DEL508-508): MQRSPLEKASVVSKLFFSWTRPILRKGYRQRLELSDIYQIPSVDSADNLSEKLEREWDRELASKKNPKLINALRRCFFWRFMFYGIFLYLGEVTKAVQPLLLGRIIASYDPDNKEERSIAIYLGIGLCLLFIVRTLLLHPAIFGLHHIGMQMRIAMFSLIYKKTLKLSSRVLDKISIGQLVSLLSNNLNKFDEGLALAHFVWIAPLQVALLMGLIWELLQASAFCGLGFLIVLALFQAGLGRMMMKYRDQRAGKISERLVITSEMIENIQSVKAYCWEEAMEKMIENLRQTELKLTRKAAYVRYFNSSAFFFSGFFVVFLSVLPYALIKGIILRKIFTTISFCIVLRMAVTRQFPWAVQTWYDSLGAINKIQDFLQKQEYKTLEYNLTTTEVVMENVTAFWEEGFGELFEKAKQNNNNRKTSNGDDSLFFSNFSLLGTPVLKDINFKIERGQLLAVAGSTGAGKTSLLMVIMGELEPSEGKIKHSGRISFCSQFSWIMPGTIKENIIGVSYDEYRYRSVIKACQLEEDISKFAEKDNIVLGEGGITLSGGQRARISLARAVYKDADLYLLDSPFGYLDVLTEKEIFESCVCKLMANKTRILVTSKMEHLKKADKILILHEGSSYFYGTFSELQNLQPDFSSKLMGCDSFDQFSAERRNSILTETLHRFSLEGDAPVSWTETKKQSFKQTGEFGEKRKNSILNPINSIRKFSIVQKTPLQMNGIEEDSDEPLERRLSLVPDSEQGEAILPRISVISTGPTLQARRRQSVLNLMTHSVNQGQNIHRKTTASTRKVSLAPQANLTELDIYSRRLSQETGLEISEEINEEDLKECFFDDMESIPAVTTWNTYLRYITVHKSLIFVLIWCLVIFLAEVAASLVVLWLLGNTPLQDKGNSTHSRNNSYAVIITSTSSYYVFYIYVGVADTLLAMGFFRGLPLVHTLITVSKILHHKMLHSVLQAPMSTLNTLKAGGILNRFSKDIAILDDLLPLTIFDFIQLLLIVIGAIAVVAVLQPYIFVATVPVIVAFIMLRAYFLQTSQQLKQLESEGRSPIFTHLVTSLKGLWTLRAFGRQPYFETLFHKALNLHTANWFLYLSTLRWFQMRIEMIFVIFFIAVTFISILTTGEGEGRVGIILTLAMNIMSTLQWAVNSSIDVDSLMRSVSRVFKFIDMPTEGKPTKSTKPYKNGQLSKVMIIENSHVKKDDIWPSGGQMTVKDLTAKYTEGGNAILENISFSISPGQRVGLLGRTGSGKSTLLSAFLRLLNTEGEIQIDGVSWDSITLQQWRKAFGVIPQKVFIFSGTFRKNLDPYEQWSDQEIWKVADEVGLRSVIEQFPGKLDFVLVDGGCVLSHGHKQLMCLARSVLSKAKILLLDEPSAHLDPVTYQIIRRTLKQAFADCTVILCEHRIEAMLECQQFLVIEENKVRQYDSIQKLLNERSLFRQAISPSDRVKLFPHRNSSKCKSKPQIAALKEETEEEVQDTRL

For `COc1c(F)cccc1-c1ccc(C(=O)NS(=O)(=O)c2ccc[nH]c2=O)c(N2C[C@@H](C)CC2(C)C)n1` [Compound 1779, 6-(3-fluoro-2-methoxy-phenyl)-N-[(2-oxo-1H-pyridin-3-yl)sulfonyl]-2-[(4S)-2,2,4-trimethylpyrrolidin-1-yl]pyridine-3-carboxamide], the EC30 entry is listed as “+++ (“+++” means <3 uM)”.
To `COc1cccc(-c2ccc(C(=O)NS(=O)(=O)c3cccc(N)n3)c(N3[C@H](C)CC[C@@H]3C)n2)n1` [Compound 1141, N-[(6-amino-2-pyridyl)sulfonyl]-2-[(2S,5R)-2,5-dimethylpyrrolidin-1-yl]-6-(6-methoxy-2-pyridyl)pyridine-3-carboxamide] belongs “++ (“++” means between 3 uM and 10 uM)”; to `CC1CN(c2ncccc2C(=O)NS(=O)(=O)c2cccc(N3CCN(CC4OCCO4)CC3)n2)C(C)(C)C1` (centres unmarked) [Compound 1937, N—[[6-[4-(1,3-dioxolan-2-ylmethyl)piperazin-1-yl]-2-pyridyl]sulfonyl]-2-(2,2,4-trimethylpyrrolidin-1-yl)pyridine-3-carboxamide], “++ (“++” means between 3 uM and 10 uM)”.
To `Cc1cc(C)c(Oc2nc(C3=CCN(C(=O)C(C)C)CC3)ccc2C(=O)NS(=O)(=O)c2cccc(N)n2)c(C)c1` [Compound 1540, N-[(6-amino-2-pyridyl)sulfonyl]-6-[1-(2-methylpropanoyl)-3,6-dihydro-2H-pyridin-4-yl]-2-(2,4,6-trimethylphenoxy)pyridine-3-carboxamide] belongs “+ (“+” means greater than 10 uM)”.
On to `CCOc1cccc2c1CN(Cc1c(C)cc(C)cc1C)C2(C)C(=O)NS(=O)(=O)c1ccc(N)nc1` (centres unmarked) [Compound 1413, N-[(6-amino-3-pyridyl)sulfonyl]-4-ethoxy-1-methyl-2-[(2,4,6-trimethylphenyl)methyl]isoindoline-1-carboxamide], for which the EC30 result is recorded as “+++ (“+++” means <3 uM)”.
`CC(C)COc1cc(F)cc(-c2ccc(C(=O)NS(=O)(=O)c3ccn[nH]3)c(N3CCC4(CC3)CC4)n2)c1` [Compound 1127, 2-(6-azaspiro[2.5]octan-6-yl)-6-(3-fluoro-5-isobutoxy-phenyl)-N-(1H-pyrazol-5-ylsulfonyl)pyridine-3-carboxamide]: the EC30 entry is recorded as “+++ (“+++” means <3 uM)”.
For `CC(C)COc1cncc(-c2ccc(C(=O)NS(=O)(=O)c3cccc(N)n3)c(N3[C@H](C)CC[C@@H]3C)n2)c1` [Compound 1224, N-[(6-amino-2-pyridyl)sulfonyl]-2-[(2S,5R)-2,5-dimethylpyrrolidin-1-yl]-6-(5-isobutoxy-3-pyridyl)pyridine-3-carboxamide], the EC30 entry was “++ (“++” means between 3 uM and 10 uM)”.
With `CCc1ccc(C(=O)NS(=O)(=O)c2cccc(N)n2)c(Oc2c(C)cc(C)cc2C)n1` [Compound 963, N-[(6-amino-2-pyridyl)sulfonyl]-6-ethyl-2-(2,4,6-trimethylphenoxy)pyridine-3-carboxamide] the entry was “++ (“++” means between 3 uM and 10 uM)”.
With `CC(C)COc1cc(F)cc(-c2ccc(C(=O)NS(=O)(=O)N3CCCC3)c(N3C[C@@H](C)CC3(C)C)n2)c1` [Compound 1619, 6-(3-fluoro-5-isobutoxy-phenyl)-N-pyrrolidin-1-ylsulfonyl-2-[(4S)-2,2,4-trimethylpyrrolidin-1-yl]pyridine-3-carboxamide] the entry was “+++ (“+++” means <3 uM)”; with `CC1CN(c2ncccc2C(=O)NS(=O)(=O)c2cccc(Nc3ccc4c(c3)CCC4)n2)C(C)(C)C1` (centres unmarked) [Compound 1909, N—[[6-(indan-5-ylamino)-2-pyridyl]sulfonyl]-2-(2,2,4-trimethylpyrrolidin-1-yl)pyridine-3-carboxamide], “+++ (“+++” means <3 uM)”.
With `C[C@@H]1CN(c2nc(C3CCC(C(F)(F)F)CC3)ccc2C(=O)NS(=O)(=O)c2cccc(N)n2)C(C)(C)C1` (stereo partly drawn) [Compound 1672, N-[(6-amino-2-pyridyl)sulfonyl]-6-[4-(trifluoromethyl)cyclohexyl]-2-[(4S)-2,2,4-trimethylpyrrolidin-1-yl]pyridine-3-carboxamide] the entry was “+++ (“+++” means <3 uM)”; with `CCOc1nn(-c2ccc(C(=O)NS(=O)(=O)c3ccc[nH]c3=O)c(N3C[C@@H](C)CC3(C)C)n2)cc1C` [Compound 1856, 6-(3-ethoxy-4-methyl-pyrazol-1-yl)-N-[(2-oxo-1H-pyridin-3-yl)sulfonyl]-2-[(4S)-2,2,4-trimethylpyrrolidin-1-yl]pyridine-3-carboxamide], “+++ (“+++” means <3 uM)”.
Take `CC1CN(c2ncccc2C(=O)NS(=O)(=O)c2cccc(N3Cc4ccccc4C3)n2)C(C)(C)C1` (centres unmarked) [Compound 1838, N-[(6-isoindolin-2-yl-2-pyridyl)sulfonyl]-2-(2,2,4-trimethylpyrrolidin-1-yl)pyridine-3-carboxamide]: the EC30 entry is reported as “+++ (“+++” means <3 uM)”.
To `CC1CN(c2ncc(-c3ccccc3C(F)(F)F)cc2C(=O)NS(=O)(=O)c2cccc(N)n2)C(C)(C)C1` (centres unmarked) [Compound 1921, N-[(6-amino-2-pyridyl)sulfonyl]-5-[2-(trifluoromethyl)phenyl]-2-(2,2,4-trimethylpyrrolidin-1-yl)pyridine-3-carboxamide] belongs “+++ (“+++” means <3 uM)”.
For `CC(C)Oc1ccc(-c2ccc(C(=O)NS(=O)(=O)c3cccc(N)n3)c(N3CCC[C@@H]3C(F)(F)F)n2)cn1` [Compound 1230, N-[(6-amino-2-pyridyl)sulfonyl]-6-(6-isopropoxy-3-pyridyl)-2-[(2R)-2-(trifluoromethyl)pyrrolidin-1-yl]pyridine-3-carboxamide], the EC30 entry was “++ (“++” means between 3 uM and 10 uM)”.
For `C[C@@H]1CN(c2nc(C3CC(C)(C)CCC3O)ccc2C(=O)NS(=O)(=O)c2cccc(N)n2)C(C)(C)C1` (stereo partly drawn) [Compound 1439, N-[(6-amino-2-pyridyl)sulfonyl]-6-(2-hydroxy-5,5-dimethyl-cyclohexyl)-2-[(4S)-2,2,4-trimethylpyrrolidin-1-yl]pyridine-3-carboxamide], the EC30 result was “++ (“++” means between 3 uM and 10 uM)”.
To `Cc1cc(C)c(Oc2nc(C3=CCC4(CC3)OCCO4)ccc2C(=O)NS(=O)(=O)c2cccc(N)n2)c(C)c1` [Compound 1558, N-[(6-amino-2-pyridyl)sulfonyl]-6-(1,4-dioxaspiro[4.5]dec-8-en-8-yl)-2-(2,4,6-trimethylphenoxy)pyridine-3-carboxamide] belongs “++ (“++” means between 3 uM and 10 uM)”; to `CC1CN(c2ncccc2C(=O)NS(=O)(=O)c2cccc(OC3CCCC3)n2)C(C)(C)C1` (centres unmarked) [Compound 1834, N—[[6-(cyclopentoxy)-2-pyridyl]sulfonyl]-2-(2,2,4-trimethylpyrrolidin-1-yl)pyridine-3-carboxamide], “+++ (“+++” means <3 uM)”; to `CCOc1cc(F)ccc1-c1ccc(C(=O)NS(=O)(=O)c2ccc[nH]c2=O)c(N2C[C@@H](C)CC2(C)C)n1` [Compound 1867, 6-(2-ethoxy-4-fluoro-phenyl)-N-[(2-oxo-1H-pyridin-3-yl)sulfonyl]-2-[(4S)-2,2,4-trimethylpyrrolidin-1-yl]pyridine-3-carboxamide], “+++ (“+++” means <3 uM)”.
To `CC(C)Oc1ccc(-c2ccc(C(=O)NS(=O)(=O)c3cccc(N)n3)c(N3CCC[C@H]3C(F)(F)F)n2)cn1` [Compound 1248, N-[(6-amino-2-pyridyl)sulfonyl]-6-(6-isopropoxy-3-pyridyl)-2-[(2S)-2-(trifluoromethyl)pyrrolidin-1-yl]pyridine-3-carboxamide] belongs “+++ (“+++” means <3 uM)”.
